Experiment: Percent mRNA encapsulation of lipid nanoparticle formulations (fluorescence-based detection of mRNA)
Assay type: physicochemical
Conditions: LNP of cationic lipid:DOPE:DMG-PEG 2K (molar ratio 60:35:5); 5 mg mRNA LNP preparations
Source text: In some embodiments, one particular application of the novel lipid composition comprising a sterol-based cationic lipid, a helper lipid, and a PEG or PEG-modified lipid is pulmonary delivery of mRNA, such as CFTR mRNA.
In this process, the lipids dissolved in ethanol and the mRNA dissolved in citrate buffer were mixed using a pump system. […] The resultant formulation mixture was in citrate buffer containing 20% ethanol. The formulation was subjected to a buffer exchange and the resultant formulation was adjusted to the desired mRNA concentration and stored frozen until further use. Final concentration: 0.5 mg/mL CFTR mRNA (encapsulated). % mRNA Encapsulation: 90%. Size: 60 nm. PDI: 0.14.

| % mRNA encapsulation | SMILES |
| --- | --- |
| 51% | CCCCCCCC/C=C\CCCCCCCCOCC(CN(C)C)OCCCCCCCC/C=C\CCCCCCCC (centres unmarked) [DODMA, 1,2-Dioleyloxy-3-dimethylaminopropane] |
| 49% | CCCCCCCC/C=C\CCCCCCCC(=O)OCC(CN(C)C)OC(=O)CCCCCCC/C=C\CCCCCCCC (centres unmarked) [DODAP, 1,2-dioleoyl-3-dimethylammonium-propane] |

Continued, compound first:

| SMILES | % mRNA encapsulation |
| --- | --- |
| CC(C)CCCC(C)C1CCC2C3CC=C4CC(OC(=O)CCc5cnc[nH]5)CCC4(C)C3CCC12C [ICE, (3S, 10R, 13R, 17R)-10, 13-dimethyl-17-((R)-6-methylheptan-2-yl)-2,3,4,7,8,9, 10, 11, 12, 13, 14, 15, 16, 17-tetradecahydro-1H-cyclopenta[a]phenanthren-3-yl 3-(1H-imidazol-4-yl)propanoate] | 90% |
| CCCCCCCCCCC(O)CN(CCN1CCN(CCN(CC(O)CCCCCCCCCC)CC(O)CCCCCCCCCC)CC1)CCN(CC(O)CCCCCCCCCC)CC(O)CCCCCCCCCC (centres unmarked) [C12-200] | 39% |
| CCCCCCCCCCC(O)CN(CCCC(C)C1OC(=O)C(C(C)CCCN(CC(O)CCCCCCCCCC)CC(O)CCCCCCCCCC)OC1=O)CC(O)CCCCCCCCC (centres unmarked) [Target 24, 3-(5-(bis(2-hydroxydodecyl)amino)pentan-2-yl)-6-(5-((2-hydroxydodecyl)(2-hydroxyundecyl)amino)pentan-2-yl)-1,4-dioxane-2,5-dione] | 59% |
